Data: patent US20250221998A1, “DISCOVERY OF COVALENT EGFR INHIBITOR THROUGH CYSTEINE 775” (Dana-Farber Cancer Institute, Inc., priority 2022, published 2025)

What was measured:
[1] = molecular target: EGFR mutant L858R Ba/F3 cells (Homo sapiens, UniProt P00533, L858R, cells depend on it); assay: Ba/F3 cell proliferation (Cell Titer Glo), EGFR L858R; format: cell-based, murine; settings: 72 hours exposure, read-out: L858R BaF3 (μM), inhibitory activity against EGFR mutants
Excerpt: (§1) The EGFR mutant L858R Ba/F3 cells have been previously described (Zhou, W., et al. Nature 462, 2009, 1070-1074). The EGFR C797S and C775S mutations were introduced via site directed mutagenesis using the Quick Change Site-Directed Mutagenesis kit into a vector containing EGFR L858R mutation (Stratagene; La Jolla, CA) according to the manufacturer's instructions. All constructs were confirmed by DNA sequencing. The constructs were then shuttled into the retroviral vector JP1540 by either using the Cre-recombination system (Agilent Technologies, Santa Clara, CA) or the In-fusion HD Cloning kit (Takara Bio USA, Inc.; Mountain view, CA). Ba/F3 cells were then infected with retrovirus per standard protocols, as described previously (Zhou, et al, Nature 2009). Stable clones were obtained by selection in puromycin (2 ug/ml). All BaF/3 mutant cells were maintained in RPMI 1640 (Cellgro; Mediatech Inc., Herndon, CA) supplemented with 10% FBS, 100 units/mL penicillin, 100 units/mL streptomycin.
(§2) Growth and inhibition of growth was assessed by the Cell Titer Glo assay (Promega, Madison, WI) and was performed according to the manufacturer's instructions. The Cell Titer Glo assay is a luminescence-based method used to determine the number of viable cells based on quantitation of the ATP present, which is directly proportional to the amount of metabolically active cells present. Ba/F3 cells of different EGFR genotypes were exposed to compounds for 72 hours and the number of cells used per experiment was determined empirically as has been previously established (Zhou, et al., Nature 2009). All experimental points were set up in triplicates in 384-well plates. […] The curves were fitted using a non-linear regression model with a sigmoidal dose response.
(§3) For inhibitory activity against EGFR mutants, the following designations are used: ≤0·25 μM=A, 0·25 μM˜0.5 μM=B, 0.5 μM˜2.5 μM=C, ≥2.5 μM=D.

[2] = molecular target: EGFR L858R/C797S Ba/F3 cells (Homo sapiens, UniProt P00533, C797S/L858R, cells depend on it); assay: Ba/F3 cell proliferation (Cell Titer Glo), EGFR L858R/C797S; format: cell-based, murine; settings: 72 hours exposure, read-out: L858R/C797S (μM), inhibitory activity against EGFR mutants
EGFR L858R/C797S Ba/F3 cells, sequence (P00533 whole entry C797S/L858R): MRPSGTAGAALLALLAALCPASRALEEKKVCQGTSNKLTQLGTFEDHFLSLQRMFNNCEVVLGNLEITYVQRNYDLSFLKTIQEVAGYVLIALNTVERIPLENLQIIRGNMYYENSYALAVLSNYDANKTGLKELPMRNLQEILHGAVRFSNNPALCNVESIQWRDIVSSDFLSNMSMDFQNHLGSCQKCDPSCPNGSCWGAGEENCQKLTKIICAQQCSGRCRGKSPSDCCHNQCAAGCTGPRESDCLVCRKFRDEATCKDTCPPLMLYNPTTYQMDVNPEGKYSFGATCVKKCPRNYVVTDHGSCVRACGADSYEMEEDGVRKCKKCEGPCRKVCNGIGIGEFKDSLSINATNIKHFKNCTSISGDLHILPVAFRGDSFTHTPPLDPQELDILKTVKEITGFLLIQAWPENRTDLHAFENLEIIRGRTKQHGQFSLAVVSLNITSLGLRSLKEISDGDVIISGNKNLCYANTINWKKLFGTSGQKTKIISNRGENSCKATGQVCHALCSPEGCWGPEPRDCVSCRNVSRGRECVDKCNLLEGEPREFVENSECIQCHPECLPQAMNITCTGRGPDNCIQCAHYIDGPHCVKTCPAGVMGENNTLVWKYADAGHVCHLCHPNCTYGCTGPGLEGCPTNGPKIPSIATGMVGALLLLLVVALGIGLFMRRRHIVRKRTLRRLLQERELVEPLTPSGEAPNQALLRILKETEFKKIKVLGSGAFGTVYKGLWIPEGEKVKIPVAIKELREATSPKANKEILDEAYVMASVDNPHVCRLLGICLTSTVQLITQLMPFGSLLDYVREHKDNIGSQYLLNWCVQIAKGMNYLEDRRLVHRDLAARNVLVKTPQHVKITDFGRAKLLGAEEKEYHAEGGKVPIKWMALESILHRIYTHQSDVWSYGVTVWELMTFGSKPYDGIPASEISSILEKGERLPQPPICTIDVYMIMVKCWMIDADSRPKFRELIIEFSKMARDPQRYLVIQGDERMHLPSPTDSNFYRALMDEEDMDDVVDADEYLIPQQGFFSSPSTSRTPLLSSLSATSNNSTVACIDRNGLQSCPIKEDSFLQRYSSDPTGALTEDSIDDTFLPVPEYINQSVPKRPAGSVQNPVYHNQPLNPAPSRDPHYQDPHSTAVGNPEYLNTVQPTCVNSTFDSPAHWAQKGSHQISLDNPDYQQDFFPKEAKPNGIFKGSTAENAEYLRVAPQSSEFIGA
Excerpt: as §1, §2, §3

EGFR mutant L858R Ba/F3 cells, sequence (P00533 whole entry L858R, the tested form may be a part): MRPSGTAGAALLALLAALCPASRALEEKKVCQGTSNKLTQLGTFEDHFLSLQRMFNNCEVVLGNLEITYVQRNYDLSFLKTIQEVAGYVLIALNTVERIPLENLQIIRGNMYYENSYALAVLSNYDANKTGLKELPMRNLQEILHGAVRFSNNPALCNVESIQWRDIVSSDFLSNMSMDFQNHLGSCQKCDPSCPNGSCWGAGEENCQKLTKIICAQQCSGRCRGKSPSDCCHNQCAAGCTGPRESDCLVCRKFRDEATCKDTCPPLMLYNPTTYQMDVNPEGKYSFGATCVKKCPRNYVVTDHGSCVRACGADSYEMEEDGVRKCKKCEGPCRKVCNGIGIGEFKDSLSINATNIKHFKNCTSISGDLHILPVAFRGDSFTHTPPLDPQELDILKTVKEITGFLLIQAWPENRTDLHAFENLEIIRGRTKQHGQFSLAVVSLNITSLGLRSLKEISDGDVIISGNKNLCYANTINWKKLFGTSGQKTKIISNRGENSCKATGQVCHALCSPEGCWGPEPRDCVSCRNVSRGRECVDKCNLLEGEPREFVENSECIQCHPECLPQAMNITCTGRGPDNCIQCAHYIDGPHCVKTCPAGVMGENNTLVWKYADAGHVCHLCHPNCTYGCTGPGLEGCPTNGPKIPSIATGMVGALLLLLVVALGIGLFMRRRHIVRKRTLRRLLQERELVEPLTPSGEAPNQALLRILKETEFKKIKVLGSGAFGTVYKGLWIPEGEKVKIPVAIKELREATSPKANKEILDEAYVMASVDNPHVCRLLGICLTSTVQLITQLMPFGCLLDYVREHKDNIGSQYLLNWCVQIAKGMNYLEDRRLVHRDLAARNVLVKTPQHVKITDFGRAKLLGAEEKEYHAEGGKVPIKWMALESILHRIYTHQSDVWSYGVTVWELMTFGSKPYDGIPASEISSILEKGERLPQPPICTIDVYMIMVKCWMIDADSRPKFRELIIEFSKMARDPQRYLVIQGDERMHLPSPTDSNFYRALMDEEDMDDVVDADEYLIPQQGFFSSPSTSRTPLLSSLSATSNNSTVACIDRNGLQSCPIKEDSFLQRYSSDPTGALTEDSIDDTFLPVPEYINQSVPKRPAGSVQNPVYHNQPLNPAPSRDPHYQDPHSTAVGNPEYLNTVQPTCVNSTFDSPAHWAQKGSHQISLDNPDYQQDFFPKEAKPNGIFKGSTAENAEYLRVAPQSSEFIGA

SMILES	GI50 [1] [µM]	GI50 [2] [µM]
C=CC(=O)N1CCN(c2cc3cnc(Nc4ccc(N5CCN(C)CC5)cn4)nc3n(C)c2=O)c2cccc(C)c21 [Compound 030]	≤ 0.25	≤ 0.25
C=CC(=O)N1CCN(c2cc3cnc(Nc4cnn(CCN(C)C)c4)nc3n(C)c2=O)c2cccc(C)c21 [Compound 037, 2-[[1-[2-(dimethylamino)ethyl]pyrazol-4-yl]amino]-8-methyl-6-(5-methyl-4-prop-2-enoyl-2,3-dihydroquinoxalin-1-yl)pyrido[2,3-d]pyrimidin-7-one]	≤ 0.25	≤ 0.25
C=CC(=O)N1CCN(c2cc3cnc(Nc4ccc(N5CCN(C)CC5)cc4)nc3n(-c3cccnc3)c2=O)c2cccc(C)c21 [Compound 052, 2-[4-(4-methylpiperazin-1-yl)anilino]-6-(5-methyl-4-prop-2-enoyl-2,3-dihydroquinoxalin-1-yl)-8-(3-pyridyl)pyrido[2,3-d]pyrimidin-7-one]	≤ 0.25	≤ 0.25
C=CC(=O)N1CCN(c2cc3cnc(Nc4cnn(C5CCN(C)CC5)c4)nc3n(C)c2=O)c2cccc(C)c21 [Compound 039, 8-methyl-2-[[1-(1-methyl-4-piperidyl)pyrazol-4-yl]amino]-6-(5-methyl-4-prop-2-enoyl-2,3-dihydroquinoxalin-1-yl)pyrido[2,3-d]pyrimidin-7-one]	≤ 0.25	≤ 0.25
C=CC(=O)N1CCN(c2cc3cnc(Nc4ccc(N5CCN(C)CC5)cc4)nc3n(C)c2=O)c2cccc(OC)c21 [Compound 021]	≤ 0.25	≤ 0.25
C=CC(=O)N1CCN(c2cc3cnc(Nc4cc5c(cc4F)CCN(C)C5)nc3n(C)c2=O)c2cccc(C)c21 [Compound 061, 2-[(6-fluoro-2-methyl-3,4-dihydro-1H-isoquinolin-7-yl)amino]-8-methyl-6-(5-methyl-4-prop-2-enoyl-2,3-dihydroquinoxalin-1-yl)pyrido[2,3-d]pyrimidin-7-one]	≤ 0.25	≤ 0.25
C=CC(=O)N1CCN(c2cc3cnc(N)nc3n([C@H]3CC[C@@](C)(O)CC3)c2=O)c2cccc(C)c21 [Compound 088, 6-(4-acryloyl-5-methyl-3,4-dihydroquinoxalin-1 (2H)-yl)-2-amino-8-((1s,4s)-4-hydroxy-4-methylcyclohexyl)pyrido[2,3-d]pyrimidin-7 (8H)-one]	≤ 0.25	≤ 0.25
C=CC(=O)N1CCN(c2cc3cnc(Nc4cc5n(c4)CCN(C)C5)nc3n(C)c2=O)c2cccc(C)c21 [Compound 085, 8-methyl-2-[(2-methyl-3,4-dihydro-1H-pyrrolo[1,2-a]pyrazin-7-yl)amino]-6-(5-methyl-4-prop-2-enoyl-2,3-dihydroquinoxalin-1-yl)pyrido[2,3-d]pyrimidin-7-one]	≥ 2.5	≥ 2.5
C=CC(=O)N1CCN(c2cc3cnc(Nc4ccc(OCCN(C)C)cc4)nc3n([C@H]3C[C@](C)(O)C3)c2=O)c2cccc(C)c21 [Compound 057, 2-[4-[2-(dimethylamino)ethoxy]anilino]-8-((1r,3r)-3-hydroxy-3-methyl-cyclobutyl)-6-(5-methyl-4-prop-2-enoyl-2,3-dihydroquinoxalin-1-yl)pyrido[2,3-d]pyrimidin-7-one]	≤ 0.25	≤ 0.25
C=CC(=O)N1CCN(c2cc3cnc(N)nc3n(-c3ccc(N4CCOCC4)cc3)c2=O)c2cccc(C)c21 [Compound 089, 2-amino-6-(5-methyl-4-prop-2-enoyl-2,3-dihydroquinoxalin-1-yl)-8-(4-morpholinophenyl)pyrido[2,3-d]pyrimidin-7-one]	≤ 0.25	≤ 0.25
C=CC(=O)N1CCN(c2cc3cnc(Nc4ccc(OCCN(C)C)cc4)nc3n([C@H]3C[C@@](C)(O)C3)c2=O)c2cccc(C)c21 [Compound 056, 2-[4-[2-(dimethylamino)ethoxy]anilino]-8-((1s,3s)-3-hydroxy-3-methyl-cyclobutyl)-6-(5-methyl-4-prop-2-enoyl-2,3-dihydroquinoxalin-1-yl)pyrido[2,3-d]pyrimidin-7-one]	≤ 0.25	≤ 0.25
C=CC(=O)N1CCN(c2cc3cnc(Nc4ccc(N5CCC(O)CC5)cc4)nc3n(C)c2=O)c2cccc(C)c21 [Compound 027, 2-[4-(4-hydroxy-1-piperidyl)anilino]-8-methyl-6-(5-methyl-4-prop-2-enoyl-2,3-dihydroquinoxalin-1-yl)pyrido[2,3-d]pyrimidin-7-one]	≤ 0.25	≤ 0.25
C=C(F)C(=O)N1CCC(c2cc3cnc(Nc4cnn(CCO)c4)nc3n(C)c2=O)c2ccccc21 (centres unmarked) [Compound 014, 6-[1-(2-fluoroprop-2-enoyl)-3,4-dihydro-2H-quinolin-4-yl]-2-[[1-(2-hydroxyethyl)pyrazol-4-yl]amino]-8-methyl-pyrido[2,3-d]pyrimidin-7-one]	≤ 0.25	≤ 0.25
C=CC(=O)N1CCN(c2cc3cnc(N)nc3n(-c3ccc(CN4CCOCC4)cc3)c2=O)c2cccc(C)c21 [Compound 094, 2-amino-6-(5-methyl-4-prop-2-enoyl-2,3-dihydroquinoxalin-1-yl)-8-[4-(morpholinomethyl)phenyl]pyrido[2,3-d]pyrimidin-7-one]	≤ 0.25	≤ 0.25
C=CC(=O)N1CCN(c2cc3cnc(N)nc3n(-c3ccc(CN4CCN(C)CC4)cc3)c2=O)c2cccc(C)c21 [Compound 103, 2-amino-8-[4-[(4-methylpiperazin-1-yl)methyl]phenyl]-6-(5-methyl-4-prop-2-enoyl-2,3-dihydroquinoxalin-1-yl)pyrido[2,3-d]pyrimidin-7-one]	0.25 to 0.5	0.5 to 2.5
C=CC(=O)N1CCC(c2cc3cnc(Nc4cnn(CCO)c4)nc3n(C)c2=O)c2ccccc21 (centres unmarked) [Compound 017, 2-[[1-(2-hydroxyethyl)pyrazol-4-yl]amino]-8-methyl-6-(1-prop-2-enoyl-3,4-dihydro-2H-quinolin-4-yl)pyrido[2,3-d]pyrimidin-7-one]	≤ 0.25	≤ 0.25
C=CC(=O)N1CCN(c2cc3cnc(Nc4ccc(N5CCN(C)CC5)cc4OC)nc3n(C)c2=O)c2cccc(C)c21 [Compound 029]	≤ 0.25	≤ 0.25
C=C(F)C(=O)NC1CCCN(c2cc3cnc(Nc4cnn(CCO)c4)nc3n(C)c2=O)C1 (centres unmarked) [Compound 016, 2-fluoro-N-[1-[2-[[1-(2-hydroxyethyl)pyrazol-4-yl]amino]-8-methyl-7-oxo-pyrido[2,3-d]pyrimidin-6-yl]-3-piperidyl]prop-2-enamide]	≥ 2.5	≥ 2.5
C=CC(=O)N1CCN(c2cc3cnc(Nc4ccc(N5CCN(C)CC5)cc4)nc3n(C)c2=O)c2cccc(O)c21 [Compound 051, 6-(5-hydroxy-4-prop-2-enoyl-2,3-dihydroquinoxalin-1-yl)-8-methyl-2-[4-(4-methylpiperazin-1-yl)anilino]pyrido[2,3-d]pyrimidin-7-one]	≤ 0.25	≤ 0.25
C=CC(=O)N1CCN(c2cc3cnc(Nc4ccccc4)nc3n([C@H]3C[C@@H](O)C3)c2=O)c2cccc(C)c21 [Compound 069]	≤ 0.25	≤ 0.25
C=CC(=O)N1CCN(c2cc3cnc(Nc4ccc5c(c4)CN(S(C)(=O)=O)CC5)nc3n(C)c2=O)c2cccc(C)c21 [Compound 035]	≤ 0.25	≤ 0.25
C=CC(=O)N1CCN(c2cc3cnc(N)nc3n(-c3ccc(OCCN(C)C)nc3)c2=O)c2cccc(C)c21 [Compound 079]	≤ 0.25	0.5 to 2.5
